Source: the NIST ThermoML archive (doi:10.1016/j.jct.2013.02.022)

Key:
[1] = Liquid; for mass density: 101 kPa, Vibrating tube method; for vapor or sublimation pressure: Ebulliometric method (Recirculating still)
[2] = refractive index (Na D-line) (dimensionless); settings: 101.33 kPa, Liquid, Standard Abbe refractometry
[3] = xn = mol fraction of the nth substance listed; settings: 101 kPa, Liquid, Vibrating tube method
[4] = refractive index (Na D-line) (dimensionless); xn = mol fraction of the nth substance listed; settings: 101 kPa, Liquid, Standard Abbe refractometry

CCCC(=O)[O-].C[NH2+]CCO [N-methyl-2-hydroxyethylammonium butanoate]
Settings	mass density, [1] [kg/m3]	refractive index, [2]
288.15 K	1046	1.4579
293.15 K	1042.6	–
298.15 K	1039.2	–
303.15 K	1035.9	1.4534
308.15 K	1032.5	–
313.15 K	–	1.4504
313.16 K	1029.1	–
318.16 K	1025.7	–
323.16 K	1022.3	–

CCCC(=O)[O-].C[NH2+]CCO [N-methyl-2-hydroxyethylammonium butanoate] + CCCOC(C)=O
Settings	mass density, [3] [kg/m3]	refractive index, [4]
308.15 K, x2 = 0	1032.53	–
308.15 K, x2 = 0.0785	1016.82	–
308.15 K, x2 = 0.4177	981.77	–
308.15 K, x2 = 0.9454	884.44	–
308.16 K, x2 = 0.1247	1013.03	–
308.16 K, x2 = 0.207	1003.47	–
308.16 K, x2 = 0.3035	993.9	–
308.16 K, x2 = 0.5088	968.89	–
308.16 K, x2 = 0.6042	952.99	–
308.16 K, x2 = 0.696	936.16	–
308.16 K, x2 = 0.7939	917.53	–
308.16 K, x2 = 0.8936	896.61	–
313.15 K, x2 = 0	–	1.4504
313.15 K, x2 = 0.0785	1013.32	1.4483
313.15 K, x2 = 0.1247	–	1.4457
313.15 K, x2 = 0.207	–	1.4417
313.15 K, x2 = 0.3035	989.89	1.4365
313.15 K, x2 = 0.4177	977.59	1.4288
313.15 K, x2 = 0.5088	–	1.4222
313.15 K, x2 = 0.6042	–	1.4146
313.15 K, x2 = 0.696	931.3	1.4068
313.15 K, x2 = 0.7939	–	1.3991
313.15 K, x2 = 0.8936	–	1.387
313.15 K, x2 = 0.9454	–	1.3809
313.16 K, x2 = 0	1029.14	–
313.16 K, x2 = 0.1247	1009.37	–
313.16 K, x2 = 0.207	999.76	–
313.16 K, x2 = 0.5088	964.73	–
313.16 K, x2 = 0.6042	948.38	–
313.16 K, x2 = 0.7939	912.41	–
313.16 K, x2 = 0.8936	891	–
313.16 K, x2 = 0.9454	878.87	–
318.15 K, x2 = 0.0785	1009.82	–
318.15 K, x2 = 0.207	996.08	–
318.15 K, x2 = 0.4177	973.39	–
318.15 K, x2 = 0.696	926.41	–
318.15 K, x2 = 0.7939	907.24	–
318.16 K, x2 = 0	1025.72	–
318.16 K, x2 = 0.1247	1005.67	–
318.16 K, x2 = 0.3035	985.85	–
318.16 K, x2 = 0.5088	960.4	–
318.16 K, x2 = 0.6042	943.75	–
318.16 K, x2 = 0.8936	885.74	–
318.16 K, x2 = 0.9454	873.25	–
323.15 K, x2 = 0.1247	1001.94	–
323.15 K, x2 = 0.207	992.3	–
323.15 K, x2 = 0.5088	956.04	–
323.15 K, x2 = 0.6042	939.06	–
323.15 K, x2 = 0.696	921.47	–
323.16 K, x2 = 0	1022.26	–
323.16 K, x2 = 0.0785	1006.34	–
323.16 K, x2 = 0.3035	981.79	–
323.16 K, x2 = 0.4177	969.14	–
323.16 K, x2 = 0.7939	901.89	–
323.16 K, x2 = 0.8936	880	–
323.16 K, x2 = 0.9454	867.59	–

CCOC(C)=O [ethyl acetate]
Settings	mass density, 298.15 K [kg/m3]	mass density, 303.15 K [kg/m3]	mass density, 308.15 K [kg/m3]	mass density, 313.15 K [kg/m3]	mass density, 318.16 K [kg/m3]	mass density, 323.15 K [kg/m3]	refractive index, 303.15 K	vapor or sublimation pressure, 349.8 K [kPa]
[1]	894.9	888.76	882.58	876.34	870.06	863.73	–	101.3
[2]	–	–	–	–	–	–	1.3672	–

CCOC(C)=O [ethyl acetate] + CCCC(=O)[O-].C[NH2+]CCO
x1 = 1
Settings	mass density, 303.15 K [kg/m3]	mass density, 308.15 K [kg/m3]	mass density, 313.15 K [kg/m3]	mass density, 318.16 K [kg/m3]	mass density, 323.15 K [kg/m3]	refractive index, 303.15 K
[3]	888.76	882.58	876.34	870.06	863.73	–
[4]	–	–	–	–	–	1.3672

COC(C)=O [methyl ethanoate]
Settings	mass density, 288.15 K [kg/m3]	mass density, 293.14 K [kg/m3]	mass density, 298.14 K [kg/m3]	mass density, 303.14 K [kg/m3]	mass density, 308.14 K [kg/m3]	mass density, 313.14 K [kg/m3]	mass density, 318.14 K [kg/m3]	mass density, 323.15 K [kg/m3]	refractive index, 288.15 K	vapor or sublimation pressure, 330.1 K [kPa]
[1]	939.9	933.4	926.8	920.2	913.5	906.7	899.9	893	–	101.3
[2]	–	–	–	–	–	–	–	–	1.365	–

COC(C)=O [methyl ethanoate] + CCCC(=O)[O-].C[NH2+]CCO
x1 = 1
Settings	mass density, 288.15 K [kg/m3]	mass density, 293.14 K [kg/m3]	mass density, 298.14 K [kg/m3]	mass density, 303.14 K [kg/m3]	mass density, 308.14 K [kg/m3]	mass density, 313.14 K [kg/m3]	mass density, 318.14 K [kg/m3]	mass density, 323.15 K [kg/m3]	refractive index, 288.15 K
[3]	939.9	933.4	926.8	920.2	913.5	906.7	899.9	893	–
[4]	–	–	–	–	–	–	–	–	1.365

CCCOC(C)=O [propyl ethanoate]
Settings	mass density, 298.15 K [kg/m3]	mass density, 308.14 K [kg/m3]	mass density, 313.15 K [kg/m3]	mass density, 318.15 K [kg/m3]	mass density, 323.15 K [kg/m3]	refractive index, 313.15 K	vapor or sublimation pressure, 374 K [kPa]
[1]	882.61	871.38	865.7	860	854.26	–	101.3
[2]	–	–	–	–	–	1.3741	–

CCCOC(C)=O [propyl ethanoate] + CCCC(=O)[O-].C[NH2+]CCO
x1 = 1
Settings	mass density, 308.14 K [kg/m3]	mass density, 313.15 K [kg/m3]	mass density, 318.15 K [kg/m3]	mass density, 323.15 K [kg/m3]	refractive index, 313.15 K
[3]	871.38	865.7	860	854.26	–
[4]	–	–	–	–	1.3741
